# According to ChEMBL document CHEMBL3507680, “University of Dundee, Gates Library screen for HepG2 cell viability”:
# Assay: Human HepG2 cell viability assay in 384 well format
# Type: toxicity, cell-based
# Parameters: dose 125 nL, time 70.5 hour; concentration not given beside the values
# Conditions: HepG2 cells, read-out: Inhibition
row,Compound,cytotoxicity at 70.5 h
1,Cc1cc(CN2CCN(Cc3ccc(C#N)cc3OC(F)F)CC2)no1,18.7%
2,CCS(=O)(=O)N1CCN(C(=O)C(C)C)CC2(CC(=O)N(C)C2)C1 (stereo not drawn),-5.47%
3,O=C1NC(c2ccccc2)=N[C@@]12CC[C@@H]1CN(Cc3ccoc3)C[C@@H]12,-3.26%
4,O=C(NS(=O)(=O)Cc1ccc(F)cc1)C1CCc2ccccc21 (stereo not drawn),3.78%
5,CCOc1ccc(C(=O)NS(=O)(=O)c2cncc(Br)c2)cc1OC,18.9%
6,COc1ccc(-c2c(C)nn3c(=N)c(C#N)n[nH]c23)cc1OC,-15.3%
7,CC(=O)N1CCCC2(C1)CN(c1nncs1)CCO2 (stereo not drawn),-4.62%
8,O=C(Cc1ccc(F)cc1)NCCNc1cc(N2CCCC2)cnn1,30.6%
9,CCN(C)Cc1cccc(CNC(=O)CSCc2ccccn2)c1,-15.2%
10,COc1ccc(-n2c(CO)nc3ccccc32)cc1CO,-6.11%
11,Cc1nc(N(C)C)ncc1C(=O)N[C@H]1Cc2ccccc2[C@@H]1N,-5.1%
12,CC(C)c1ccc(OCC(=O)N2CCOCC2c2ncon2)cc1 (stereo not drawn),-8.54%
13,Cc1cnn(CC2CCCN2Cc2cc(=O)n3cc(C)ccc3n2)c1 (stereo not drawn),-1.28%
14,O=C(c1ccc(F)cc1Cl)N1CCC(Nc2cccnn2)CC1,-7.6%
15,Cc1cc(C(=O)N2CCC(c3nccn3Cc3ccncc3)CC2)no1,1.65%
16,CC(=O)NCC(=O)N1Cc2cc(C#N)ccc2C1c1cnco1 (stereo not drawn),25.2%
17,COCCC1CCN([C@@H]2c3ccccc3C3(CCNCC3)[C@H]2O)CC1,-3.9%
18,Cc1cc(NC(=O)N(CC2CCOC2)C2CC2)no1 (stereo not drawn),-11.9%
19,CN(Cc1cc2cc(F)ccc2[nH]1)C(=O)C1CC(=O)N(C2CCCC2)C1 (stereo not drawn),-4.53%
20,Cc1ccc2c(c1)CN(C(=O)c1ccncc1)C(CN(C)C)CO2 (stereo not drawn),-0.528%
21,O=C(C(CNCc1ccccc1O)c1ccccc1)N1CCOCC1 (stereo not drawn),-2.58%
22,CC(=O)N1CCC(n2nccc2-c2cnc(N(C)CCO)nc2)CC1,-6.31%
23,COc1ccc(N2CCN(Cc3nc(CSC)no3)CC2=O)cc1,4.47%

row,Compound,cytotoxicity at 70.5 h
1,CCOC(=O)CNC(=O)C1OC(c2ccccc2)=NN1C(C)=O (stereo not drawn),-6.97%
2,CC(C)(O)CN1CCN(C(=O)c2cnn(-c3ccccc3F)c2)CC1,-4.5%
3,CNS(=O)(=O)c1ccc(CNC(=O)C2CCCN(C)C2)cc1 (stereo not drawn),-6.65%
4,CSCC[C@H](NC(=O)CCn1cc(C(C)=O)c2ccccc21)C(=O)O,-8.28%
5,CC(C)NC(=O)CNC(C)COc1ccccc1 (stereo not drawn),-12.1%
6,CC(C)Oc1ccccc1C1CC(=O)Nc2nc(N3CCOCC3)sc21 (stereo not drawn),-13.2%
7,CN(C)C(=O)NCc1nnc2n1CCN(Cc1ccsc1)C2,3.34%
8,O=C(COc1ccccc1)NCC1CC1,9.36%
9,CCc1[nH]ncc1C(=O)N1CCCC(n2nc(C)cc2C)C1 (stereo not drawn),-10.3%
10,Cc1n[nH]c(C)c1-c1cnc(CC2CCN(C)C2)cn1 (stereo not drawn),-17.7%
11,CC(C)(C)C(=O)NCCC(=O)Nc1cc(C#N)cn1C(C)(C)C,-4.11%
12,Cc1ccc(NC(=O)N(C)Cc2cnn(C)c2)cc1OCC(F)F,26.4%
13,Cc1noc(C)c1CN(C)C(=O)C1CCN(S(N)(=O)=O)CC1,-1.71%
14,CN1CCCN(c2nccc(-c3c[nH]nc3C3CCCCC3)n2)CC1,-3.95%
15,CN(CC(=O)N1CCCC1c1cnn(C)c1)Cc1ccccc1 (stereo not drawn),-11.9%
16,Cc1nc(CN2CCn3cc(CNC(=O)C4CCC4)nc3C2)cs1,14%
17,CCOC[C@@H]1CC[C@H]2[C@H](CCN2Cc2c(C)noc2C)O1,-0.0549%
18,CCOCCSc1nnc(Cc2ccccc2F)o1,-0.117%
19,COCC1CN(Cc2cc(C)on2)Cc2cn(CC3CC3)nc21 (stereo not drawn),-1.87%
20,CCn1c(C)nnc1CN(C)C1CCN(Cc2ccon2)C1 (stereo not drawn),-1.86%
21,COCC(O)CNc1cncc(Br)c1 (stereo not drawn),-2.5%
22,CNS(=O)(=O)c1csc(C(=O)N(C)Cc2sccc2C)c1,-6.58%
23,CN(Cc1cnn(C)c1)S(=O)(=O)N1CCCCC1,-5.36%

row,Compound,cytotoxicity at 70.5 h
1,Cc1csc(CN2C[C@@H]3CN(CC4CCOCC4)CCO[C@@H]3C2)n1,-6.62%
2,Cc1c[nH]c(C(=O)N2CCC(c3nnc(CN(C)CCO)n3C)CC2)c1,4.25%
3,COCc1c(C(=O)N2CCCC(N(C)Cc3ccccc3)C2)noc1C (stereo not drawn),-3.62%
4,Cc1cnn(CC2CN(CC(=O)Nc3sccc3C#N)CCO2)c1 (stereo not drawn),-0.129%
5,COCCC(=O)NCc1ccc(-c2ccccc2C(=O)O)cn1,-6.35%
6,CN1C(=O)C2(CCN(C(=O)c3ccccc3)CC2)c2cccc(F)c21,0.835%
7,FC(F)COc1ccccc1NCc1nnsc1Cl,-10.5%
8,O=C(CCn1ccnc1)N1C[C@@H](O)[C@H](Oc2cccc(F)c2)C1,0.895%
9,CN1C(=O)C(C)(C)COc2cc(NS(=O)(=O)Cc3ccccc3)ccc21,9.19%
10,COc1cc(NCCNC(=O)c2cscc2C)cc(OC)c1,-2.4%
11,CCc1ccsc1C(=O)N1CCN(CC(C)(C)O)CC1,-5.61%
12,CC(C)NC(=O)N1CCN(C(=O)N(C)C)CC2(CC(=O)N(C)C2)C1 (stereo not drawn),-6.79%
13,NC(=O)C1CCCCN1C(=O)c1ccc(Br)s1 (stereo not drawn),-5.06%
14,CC(C)n1nc2c(cc1=O)CN(CCCN1CCCC1=O)CC2,-9.82%
15,COc1ccc(Cl)cc1-n1nc(C2CCCC2)nc1Cn1cnnn1,5.4%
16,CCC(=O)N1CCC(Cc2ccccc2-c2ccncc2)(C(N)=O)C1 (stereo not drawn),-10.9%
17,O=C(C1CCCOC1)N1CCc2ccc(F)cc21 (stereo not drawn),1.26%
18,Cc1ncsc1CCC(=O)NCc1cc2n(n1)CCNC2,-8.17%
19,CCOc1nnc(CNC2CCCN(c3ccc(C)nn3)C2)s1 (stereo not drawn),-1.05%
20,Cc1cnc2c(c1)N(C(=O)c1ccc(=O)n(C)c1)CCO2,-2.79%
21,Nc1ccnc(N2CCC(CCc3ccccc3)(C(=O)O)CC2)n1,14.5%
22,COc1ccc(-c2n[nH]cc2CN(C)CCC2CCOCC2)cc1F,-1.66%
23,CC1CCN(C(=O)CN(Cc2ccco2)C2CC2)CC1,-9.01%

row,Compound,cytotoxicity at 70.5 h
1,Cn1ncc2c(NCC3CCS(=O)(=O)C3)nc(-c3ccncc3)nc21 (stereo not drawn),21.3%
2,COc1c(C2CCCN2C(=O)c2ccc(C(N)=O)s2)c(C)nn1C (stereo not drawn),-7.38%
3,O=C(CNc1cc2c(cc1Cl)OCCO2)NCC(F)(F)F,-3.78%
4,Cc1nnc(N2C[C@@H]3CCCO[C@@H]3[C@H](N3CCCC3=O)C2)s1,-9.55%
5,CCc1ncc2c(n1)CN(CC1CCCCO1)CC2 (stereo not drawn),8.28%
6,Brc1csc(-c2noc(C3COCCO3)n2)c1 (stereo not drawn),0.61%
7,Cc1cc(-n2nc(C3CC3)nc2-c2csnn2)ccn1,-10.1%
8,Cc1cccc(C(=O)N2CCC3(CC2)CC(c2ccccc2)C(=O)N3)c1 (stereo not drawn),-0.963%
9,c1ccc2[nH]c(C3CCN(Cc4nnc(C5CC5)o4)CC3)nc2c1,-5.81%
10,CCOc1nn(CC)cc1-c1nnc(SCc2ccccn2)n1C,-6.8%
11,CN(C)CC(=O)N1CCC2(CC1)CN(Cc1ccccc1)C2,30.2%
12,Cc1cccc(NCC(=O)NC2(C#N)CCCC2)c1C(=O)N1CCCC1,2.28%
13,CCOc1ccc(CN2CCC(c3[nH]ncc3C)C2)cc1CO (stereo not drawn),-7.99%
14,CCn1cc(N2Cc3nc(N4CCN(C)CC4)ncc3C2=O)cn1,-7.74%
15,O=c1ccc2c(n1CCN1CCCC1)CCN(Cc1ccoc1)CC2,-5.75%
16,CC(C)(C)C(O)CN1CCN(C(=O)c2cccc3[nH]ncc23)CC1 (stereo not drawn),-3.16%
17,CCN1CCN(S(=O)(=O)c2cc(C)c(Cl)cc2Cl)CC1,10.1%
18,CC(C1CCN(Cc2c(Cl)cncc2Cl)CC1)N1CCOCC1 (stereo not drawn),-5.73%
19,Cc1nc(CN2C[C@@H]3CN(c4ncc(F)cn4)C[C@@H]3C2=O)cs1,-10.5%
20,O=C(C1CCCO1)N1CCC2(CC1)CNCCO2 (stereo not drawn),9.56%
21,CC(C)Cc1nnc(NC(=O)NC(CCO)c2cccs2)s1 (stereo not drawn),-3.34%
22,CC(C)N1CC[C@H]2[C@H](C[C@@H](Cn3cccn3)N2c2nccs2)C1,-4.28%
23,Cc1nc(C2CCCN2Cc2ccc(S(=O)(=O)N(C)C)o2)no1 (stereo not drawn),-5.97%

row,Compound,cytotoxicity at 70.5 h
1,Cc1ccc(N2CC[C@@H]3O[C@@H](COCc4cccnc4)CC[C@@H]32)nn1,-3.24%
2,NS(=O)(=O)c1cccnc1Nc1c(Cl)cccc1Cl,14%
3,COCCN(CCOC)c1ncc(C#N)cc1Cl,-15.8%
4,CCNC(=O)C1CCN(Cn2nc(-c3ccccc3)oc2=O)CC1,-1.22%
5,COCC(=O)N1CCCC1c1csc(Nc2cnccn2)n1 (stereo not drawn),-10.2%
6,Cc1ccccc1C1(CNC(=O)NC(C)c2nncn2C)CC1 (stereo not drawn),-2.77%
7,CCn1cc(CN2CCCN(C(=O)CCSC)CC2)cn1,-1.89%
8,CCOCc1nn(C)c2c1CN(Cc1cccs1)CC2,-7.58%
9,CNC(=O)C1CCCN(C(=O)OC)C1 (stereo not drawn),-5.12%
10,Cc1cccc(CN2C(=O)CCC23CCN(C(=O)c2ccco2)CC3)c1,-10.9%
11,CN1CCCN(C(=O)c2nc3c(o2)CN(C(=O)c2cccnc2)C3)CC1,-1.59%
12,Cc1noc(C)c1CN1CC[C@@H]2O[C@@H](COCC3CC3)CC[C@@H]21,-4.44%
13,CN1CCCC2(CCN(Cc3cncn3C3CCCCC3)C2)C1=O (stereo not drawn),-4.94%
14,COCc1nnc(-c2cccc(C(=O)OC(C)C)c2)o1,-8.2%
15,CCC[C@H]1CN(Cc2ccc(N(C)C)nc2)C[C@@H]1NC(=O)CSC,-6.28%
16,CCOc1cc(C(=O)N2CCCC(c3noc(C)n3)C2)ccc1OC (stereo not drawn),-4.06%
17,Cc1oncc1C(=O)N1CC[C@H]2[C@H]1CCN2S(C)(=O)=O,-1.36%
18,COC(=O)C(NC(=O)C1CCCC1)c1cc(F)ccc1F (stereo not drawn),0.552%
19,CCCc1ccc(CN2CCC3(CCC(=O)N(CCO)C3)CC2)o1,-3.93%
20,Cc1ccc(OCCCNC(=O)C2(C)CC(=O)N3C=CC=CC3=N2)cc1 (stereo not drawn),-3.61%
21,N#Cc1ccc(CN2C(=O)c3ccccc3CS2(=O)=O)c(F)c1,2.45%
